IC50 data for 20 compounds are collected here from patent publication US9708318B2, “Bicyclic heterocycles as FGFR4 inhibitors” (Incyte Corporation, priority 2015, dated 2017).

Structures are written as SMILES. Read-outs that look alike come from different tables or passages of the source. Where only a bound is given, the exact number is not on record here.

One test addresses FGFR1 (Homo sapiens (Human), UniProt P11362). Nature of the test: FGFR Enzymatic Assay (FRET peptide phosphorylation), FGFR1.
A further test has as its target FGFR3 enzyme (Homo sapiens (Human), UniProt P22607). The test can be described thus: FGFR Enzymatic Assay (FRET peptide phosphorylation), FGFR3. The test is classed as biochemical. To be noted: read-out: FGFR3 IC50. The method, then:
(§1) The inhibitor potency of the exemplified compounds was measured in an enzyme assay that measures peptide phosphorylation using FRET measurements to detect product formation. Inhibitors were serially diluted in DMSO and a volume of 0.5 μL was transferred to the wells of a 384-well plate.
(§2) GraphPad prism3 was used to analyze the data.

In the next test the target is FGFR2 (Homo sapiens (Human), UniProt P21802). Nature of the test: FGFR Enzymatic Assay (FRET peptide phosphorylation), FGFR2. The test is classed as biochemical. On the procedure: as §1
FGFR2, sequence (P21802 22-821): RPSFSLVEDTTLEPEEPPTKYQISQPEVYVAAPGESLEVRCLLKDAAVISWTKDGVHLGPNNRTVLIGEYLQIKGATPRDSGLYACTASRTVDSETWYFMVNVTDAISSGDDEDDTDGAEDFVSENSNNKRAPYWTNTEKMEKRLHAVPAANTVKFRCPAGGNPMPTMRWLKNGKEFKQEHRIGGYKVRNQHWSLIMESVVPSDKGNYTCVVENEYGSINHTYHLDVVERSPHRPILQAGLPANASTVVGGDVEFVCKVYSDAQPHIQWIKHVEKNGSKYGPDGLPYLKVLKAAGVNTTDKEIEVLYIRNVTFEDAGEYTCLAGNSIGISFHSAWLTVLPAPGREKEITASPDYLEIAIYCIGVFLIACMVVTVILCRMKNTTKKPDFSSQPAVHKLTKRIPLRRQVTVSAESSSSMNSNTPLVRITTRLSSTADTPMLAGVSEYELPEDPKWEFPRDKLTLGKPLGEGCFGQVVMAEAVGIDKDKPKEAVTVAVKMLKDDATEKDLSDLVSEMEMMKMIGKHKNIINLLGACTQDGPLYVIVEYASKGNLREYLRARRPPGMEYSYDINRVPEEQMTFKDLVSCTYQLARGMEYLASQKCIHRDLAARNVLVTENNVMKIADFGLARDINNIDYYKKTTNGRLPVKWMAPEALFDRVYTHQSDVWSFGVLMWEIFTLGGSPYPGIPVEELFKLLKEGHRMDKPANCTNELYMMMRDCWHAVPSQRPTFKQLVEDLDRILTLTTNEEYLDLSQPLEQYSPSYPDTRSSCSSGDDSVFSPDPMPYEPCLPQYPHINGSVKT
The enzymes were purchased from Millipore or Invitrogen.
as §2

Where [1] appears, read: FGFR1 IC50 (nM), pre-incubated for 4 hours.
Setting [2] is: read-out: FGFR1 IC50, pre-incubated for 5 to 10 minutes.
Where [3] appears, read: read-out: FGFR1 IC50, pre-incubated for 4 hours.
Setting [4] is: pre-incubated for 5 to 10 minutes.
[5] abbreviates: FGFR1 IC50 (nM), pre-incubated for 5 to 10 minutes.

FGFR3 enzyme, sequence (P22607 23-806): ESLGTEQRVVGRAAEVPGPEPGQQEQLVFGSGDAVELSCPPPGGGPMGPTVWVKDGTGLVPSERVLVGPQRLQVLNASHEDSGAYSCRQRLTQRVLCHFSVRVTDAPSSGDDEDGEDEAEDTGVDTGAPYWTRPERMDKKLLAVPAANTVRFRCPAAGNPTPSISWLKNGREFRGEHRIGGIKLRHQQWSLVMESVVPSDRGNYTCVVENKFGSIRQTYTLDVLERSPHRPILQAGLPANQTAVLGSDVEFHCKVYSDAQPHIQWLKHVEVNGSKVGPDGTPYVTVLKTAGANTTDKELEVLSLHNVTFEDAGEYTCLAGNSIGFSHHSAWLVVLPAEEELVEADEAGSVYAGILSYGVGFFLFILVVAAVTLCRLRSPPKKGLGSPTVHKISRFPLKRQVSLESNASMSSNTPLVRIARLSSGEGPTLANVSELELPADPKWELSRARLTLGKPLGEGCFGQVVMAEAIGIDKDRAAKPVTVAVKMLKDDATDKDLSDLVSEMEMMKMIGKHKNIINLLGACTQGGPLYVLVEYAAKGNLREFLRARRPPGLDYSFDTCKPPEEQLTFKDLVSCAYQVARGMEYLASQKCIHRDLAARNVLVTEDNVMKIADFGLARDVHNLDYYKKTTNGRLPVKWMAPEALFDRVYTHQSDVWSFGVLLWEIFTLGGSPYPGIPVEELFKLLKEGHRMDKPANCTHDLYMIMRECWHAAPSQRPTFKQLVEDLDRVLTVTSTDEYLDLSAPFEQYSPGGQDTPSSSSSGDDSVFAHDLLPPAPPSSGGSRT
FGFR1, sequence (P11362 22-822): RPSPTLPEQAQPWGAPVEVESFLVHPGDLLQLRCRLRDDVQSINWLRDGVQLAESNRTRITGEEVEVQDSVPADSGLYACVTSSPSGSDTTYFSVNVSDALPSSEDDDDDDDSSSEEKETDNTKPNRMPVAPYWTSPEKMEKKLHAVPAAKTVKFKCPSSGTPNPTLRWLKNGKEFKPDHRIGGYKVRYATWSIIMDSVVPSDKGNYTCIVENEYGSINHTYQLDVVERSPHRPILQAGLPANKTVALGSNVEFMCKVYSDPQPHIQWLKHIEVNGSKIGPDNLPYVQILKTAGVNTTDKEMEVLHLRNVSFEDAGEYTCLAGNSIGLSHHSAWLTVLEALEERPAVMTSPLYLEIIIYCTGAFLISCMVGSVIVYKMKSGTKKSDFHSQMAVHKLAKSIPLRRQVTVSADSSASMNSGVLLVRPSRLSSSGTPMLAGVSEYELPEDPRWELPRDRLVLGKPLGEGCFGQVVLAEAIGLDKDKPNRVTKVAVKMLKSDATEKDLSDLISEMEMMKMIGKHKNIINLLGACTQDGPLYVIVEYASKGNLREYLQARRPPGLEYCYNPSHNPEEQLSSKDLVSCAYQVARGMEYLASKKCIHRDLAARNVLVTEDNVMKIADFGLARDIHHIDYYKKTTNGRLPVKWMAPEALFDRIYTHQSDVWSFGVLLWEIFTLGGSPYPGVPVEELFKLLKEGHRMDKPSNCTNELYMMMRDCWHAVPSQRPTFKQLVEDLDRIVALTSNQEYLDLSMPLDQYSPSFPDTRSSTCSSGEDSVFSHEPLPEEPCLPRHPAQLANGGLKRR

In the case of `CCc1nnc(CN2C(=O)N(c3c(F)c(OC)cc(OC)c3F)Cc3cnc(-c4cn(C)nc4C)cc32)o1` [Example 67, 3-(2,6-difluoro-3,5-dimethoxyphenyl)-7-(1,3-dimethyl-1H-pyrazol-4-yl)-1-((5-ethyl-1,3,4-oxadiazol-2-yl)methyl)-3,4-dihydropyrido[4,3-d]pyrimidin-2(1H)-one], the results for the IC50 at FGFR1 (setting [1]), at FGFR3 enzyme (pre-incubated for 4 hours) and on FGFR2 (pre-incubated for 4 hours) were […], less than 10 nM and less than 10 nM, respectively.

Turning to `COc1cc(OC)c(F)c(N2Cc3cnc(-c4cn(C)nc4C)cc3N(C(C)C)C2=O)c1F` [Example 90, 3-(2,6-difluoro-3,5-dimethoxyphenyl)-7-(1,3-dimethyl-1H-pyrazol-4-yl)-1-isopropyl-3,4-dihydropyrido[4,3-d]pyrimidin-2(1H)-one], the values for the IC50 against FGFR1 (setting [1]), on FGFR3 enzyme (pre-incubated for 4 hours) and against FGFR2 (pre-incubated for 4 hours) were […], […] and […], respectively.

Take `CCN1C(=O)N(c2c(F)c(OC)cc(OC)c2F)Cc2cnc(-c3ccc(N4CCOCC4)nc3)cc21` [Example 182, 3-(2,6-difluoro-3,5-dimethoxyphenyl)-1-ethyl-7-(6-morpholinopyridin-3-yl)-3,4-dihydropyrido[4,3-d]pyrimidin-2(1H)-one]: the IC50 – broadly, the concentration that inhibits the measured activity by half – on FGFR1 (setting [1]) was […]; on FGFR3 enzyme (pre-incubated for 4 hours), […]; against FGFR2 (pre-incubated for 4 hours) it was […].

Take `CCN1C(=O)N(c2c(F)c(OC)cc(OC)c2F)Cc2cnc(-c3cnn(C)c3)cc21` [Example 169, 3-(2,6-difluoro-3,5-dimethoxyphenyl)-1-ethyl-7-(1-methyl-1H-pyrazol-4-yl)-3,4-dihydropyrido[4,3-d]pyrimidin-2(1H)-one]: the 50% inhibitory concentration (IC50) on FGFR1 (setting [2]), on FGFR1 (setting [3]), on FGFR3 enzyme (setting [4]), on FGFR3 enzyme (pre-incubated for 4 hours), at FGFR2 (setting [4]) and on FGFR2 (pre-incubated for 4 hours) was less than 10 nM in each case.

`CCNC(=O)c1ccc(-c2cc3c(cn2)CN(c2c(F)c(OC)cc(OC)c2F)C(=O)N3CC)cn1` [Example 175, 5-(3-(2,6-difluoro-3,5-dimethoxyphenyl)-1-ethyl-2-oxo-1,2,3,4-tetrahydropyrido[4,3-d]pyrimidin-7-yl)-N-ethylpicolinamide]: the IC50 on FGFR1 (setting [5]) is […]; against FGFR1 (setting [1]), […]; at FGFR3 enzyme (setting [4]), […]; at FGFR3 enzyme (pre-incubated for 4 hours), […]; at FGFR2 (setting [4]), […]; against FGFR2 (pre-incubated for 4 hours), […].

Regarding `COc1cc(CN2C(=O)N(c3c(F)c(OC)cc(OC)c3F)Cc3cnc(-c4cn(C)nc4C)cc32)ccn1` [Example 58, 3-(2,6-difluoro-3,5-dimethoxyphenyl)-7-(1,3-dimethyl-1H-pyrazol-4-yl)-1-((2-methoxypyridin-4-yl)methyl)-3,4-dihydropyrido[4,3-d]pyrimidin-2(1H)-one], the IC50 against FGFR1 (setting [5]) was […]; against FGFR1 (setting [1]) it was […]; on FGFR3 enzyme (setting [4]), […]; at FGFR3 enzyme (pre-incubated for 4 hours) it was […]; on FGFR2 (setting [4]), […]; at FGFR2 (pre-incubated for 4 hours), […].

Take `COc1cc(OC)c(F)c(N2Cc3cnc(-c4cn(C)nc4C)cc3N(Cc3ccncc3)C2=O)c1F` [Example 69, 3-(2,6-difluoro-3,5-dimethoxyphenyl)-7-(1,3-dimethyl-1H-pyrazol-4-yl)-1-(pyridin-4-ylmethyl)-3,4-dihydropyrido[4,3-d]pyrimidin-2(1H)-one]: the IC50 on FGFR1 (setting [5]) is […]; on FGFR1 (setting [1]), […]; at FGFR3 enzyme (setting [4]), […]; at FGFR3 enzyme (pre-incubated for 4 hours), […]; at FGFR2 (setting [4]), […]; against FGFR2 (pre-incubated for 4 hours), […].

`CCN1C(=O)N(c2c(F)c(OC)cc(OC)c2F)Cc2cnc(-c3ccc(C4(C#N)CCC4)nc3)cc21` [Example 27, 1-(5-(3-(2,6-difluoro-3,5-dimethoxyphenyl)-1-ethyl-2-oxo-1,2,3,4-tetrahydropyrido[4,3-d]pyrimidin-7-yl)pyridin-2-yl)cyclobutanecarbonitrile]: the IC50 on FGFR1 (setting [1]) was […]; at FGFR3 enzyme (pre-incubated for 4 hours) it was […]; at FGFR2 (pre-incubated for 4 hours), […].

On to `CCCn1cc(N2C(=O)N(c3c(F)c(OC)cc(OC)c3F)Cc3cnc(-c4cn(C)nc4C)cc32)cn1` [Example 132, 3-(2,6-difluoro-3,5-dimethoxyphenyl)-7-(1,3-dimethyl-1H-pyrazol-4-yl)-1-(1-propyl-1H-pyrazol-4-yl)-3,4-dihydropyrido[4,3-d]pyrimidin-2(1H)-one], for which the IC50 against FGFR1 (setting [1]) is […]; on FGFR3 enzyme (pre-incubated for 4 hours), […]; against FGFR2 (pre-incubated for 4 hours), […].

On to `COc1cc(OC)c(F)c(N2Cc3cnc(-c4cn(C)nc4C)cc3N(Cc3ccn(C)c(=O)c3)C2=O)c1F` [Example 117, 3-(2,6-difluoro-3,5-dimethoxyphenyl)-7-(1,3-dimethyl-1H-pyrazol-4-yl)-1-((1-methyl-2-oxo-1,2-dihydropyridin-4-yl)methyl)-3,4-dihydropyrido[4,3-d]pyrimidin-2(1H)-one], for which the IC50 was […] against FGFR1 (setting [5]), […] at FGFR3 enzyme (setting [4]) and […] against FGFR2 (setting [4]).

Turning to `CCCN1C(=O)N(c2c(F)c(OC)cc(OC)c2F)Cc2cnc(-c3cn(C)nc3C)cc21` [Example 30, 3-(2,6-difluoro-3,5-dimethoxyphenyl)-7-(1,3-dimethyl-1H-pyrazol-4-yl)-1-propyl-3,4-dihydropyrido[4,3-d]pyrimidin-2(1H)-one], the concentration for half-maximal inhibition (IC50) on FGFR1 (setting [1]) is […]; at FGFR3 enzyme (pre-incubated for 4 hours) it was […]; against FGFR2 (pre-incubated for 4 hours) it was […].

`CCc1cc(CN2C(=O)N(c3c(F)c(OC)cc(OC)c3F)Cc3cnc(-c4cn(C)nc4C)cc32)no1` [Example 64, 3-(2,6-difluoro-3,5-dimethoxyphenyl)-7-(1,3-dimethyl-1H-pyrazol-4-yl)-1-((5-ethylisoxazol-3-yl)methyl)-3,4-dihydropyrido[4,3-d]pyrimidin-2(1H)-one]: the figures for the IC50 against FGFR1 (setting [1]), on FGFR3 enzyme (pre-incubated for 4 hours) and at FGFR2 (pre-incubated for 4 hours) were […], […] and […], respectively.

On to `CCn1cc(CN2C(=O)N(c3c(F)c(OC)cc(OC)c3F)Cc3cnc(-c4cnn(C)c4)cc32)cn1` [Example 145, 3-(2,6-difluoro-3,5-dimethoxyphenyl)-1-((1-ethyl-1H-pyrazol-4-yl)methyl)-7-(1-methyl-1H-pyrazol-4-yl)-3,4-dihydropyrido[4,3-d]pyrimidin-2(1H)-one], for which the IC50 on FGFR1 (setting [2]), on FGFR3 enzyme (setting [4]) and at FGFR2 (setting [4]) was less than 10 nM in each case.

Take `COc1cc(OC)c(F)c(N2Cc3cnc(-c4cn(C)nc4C)cc3N(Cc3nnc(C)o3)C2=O)c1F` [Example 46, 3-(2,6-difluoro-3,5-dimethoxyphenyl)-7-(1,3-dimethyl-1H-pyrazol-4-yl)-1-[(5-methyl-1,3,4-oxadiazol-2-yl)methyl]-3,4-dihydropyrido[4,3-d]pyrimidin-2(1H)-one]: the IC50 was […] at FGFR1 (setting [1]), […] on FGFR3 enzyme (pre-incubated for 4 hours) and […] at FGFR2 (pre-incubated for 4 hours).

For the compound `COc1cc(OC)c(F)c(N2Cc3cnc(-c4cn(C)nc4C)cc3N(Cc3cc(C)on3)C2=O)c1F` [Example 31, 3-(2,6-difluoro-3,5-dimethoxyphenyl)-7-(1,3-dimethyl-1H-pyrazol-4-yl)-1-((5-methylisoxazol-3-yl)methyl)-3,4-dihydropyrido[4,3-d]pyrimidin-2(1H)-one], the IC50 against FGFR1 (setting [1]) is […]; on FGFR3 enzyme (pre-incubated for 4 hours), […]; against FGFR2 (pre-incubated for 4 hours), […].

Turning to `COc1cc(OC)c(F)c(N2Cc3cnc(-c4cn(C)nc4C)cc3N(CC3CCOCC3)C2=O)c1F` [Example 37, 3-(2,6-difluoro-3,5-dimethoxyphenyl)-7-(1,3-dimethyl-1H-pyrazol-4-yl)-1-((tetrahydro-2H-pyran-4-yl)methyl)-3,4-dihydropyrido[4,3-d]pyrimidin-2(1H)-one], the half-inhibitory concentration (IC50) on FGFR1 (setting [1]) is 10 to 30 nM; at FGFR3 enzyme (pre-incubated for 4 hours) it was less than 10 nM; against FGFR2 (pre-incubated for 4 hours), less than 10 nM.

For `COc1cc(OC)c(F)c(N2Cc3cnc(-c4cn(C)nc4C)cc3N(Cc3ccccn3)C2=O)c1F` [Example 94, 3-(2,6-difluoro-3,5-dimethoxyphenyl)-7-(1,3-dimethyl-1H-pyrazol-4-yl)-1-(pyridin-2-ylmethyl)-3,4-dihydropyrido[4,3-d]pyrimidin-2(1H)-one], the IC50 on FGFR1 (setting [3]), on FGFR3 enzyme (pre-incubated for 4 hours) and at FGFR2 (pre-incubated for 4 hours) was less than 10 nM each time.

Regarding `COc1cc(OC)c(F)c(N2Cc3cnc(-c4cn(C)nc4C)cc3N(CCc3cnn(C)c3)C2=O)c1F` [Example 114, 3-(2,6-difluoro-3,5-dimethoxyphenyl)-7-(1,3-dimethyl-1H-pyrazol-4-yl)-1-(2-(1-methyl-1H-pyrazol-4-yl)ethyl)-3,4-dihydropyrido[4,3-d]pyrimidin-2(1H)-one], the values for the IC50 at FGFR1 (setting [1]), on FGFR3 enzyme (pre-incubated for 4 hours) and against FGFR2 (pre-incubated for 4 hours) were […], […] and […], respectively.

Take `COc1cc(OC)c(F)c(N2Cc3cnc(-c4cn(C)nc4C)cc3N(Cc3ccnc(C)c3)C2=O)c1F` [Example 68, 3-(2,6-difluoro-3,5-dimethoxyphenyl)-7-(1,3-dimethyl-1H-pyrazol-4-yl)-1-((2-methylpyridin-4-yl)methyl)-3,4-dihydropyrido[4,3-d]pyrimidin-2(1H)-one]: the IC50 on FGFR1 (setting [1]) is […]; at FGFR3 enzyme (pre-incubated for 4 hours), […]; at FGFR2 (pre-incubated for 4 hours), […].

As for `COc1cc(OC)c(F)c(N2Cc3cnc(-c4cn(C)nc4C)cc3N(Cc3cc(C)no3)C2=O)c1F` [Example 35, 3-(2,6-difluoro-3,5-dimethoxyphenyl)-7-(1,3-dimethyl-1H-pyrazol-4-yl)-1-((3-methylisoxazol-5-yl)methyl)-3,4-dihydropyrido[4,3-d]pyrimidin-2(1H)-one], the IC50 on FGFR1 (setting [1]) was […]; on FGFR3 enzyme (pre-incubated for 4 hours), […]; at FGFR2 (pre-incubated for 4 hours), […].
